From USRE37770E1, “Treatment of skin conditions by use of PPARα activators” (The Regents of the University of California, priority 1997, dated 2002)

Assays:
fetal rodent skin = settings: earlier studies (Hanley et al. 1996); cited from earlier work
[1] = tested on: Skin explants from gestational day 17 rats; assay: Light and electron microscopy of fetal rat skin explants (epidermal maturation); format: cell-based
Experimental: Samples for light microscopy were fixed in modified Karnovsky's solution, plastic-embedded, and 0.5 μm sections were stained with toluidine. Samples for electron microscopy were minced into 1 mm^3 pieces, fixed in modified Karnovsky's fixative, and processed. Sections were stained with uranyl acetate and lead citrate, post-fixed in ruthenium tetroxide, and examined using a Zeiss 10A electron microscope.
Explants incubated in various media woe examined by light microscopy. The incubation di included control medium (containing no activators) and various media individually containing 300 μM clofibrate, 100 μM juvenile hormone III, 300 μM oleic acid, 30 μM linoleic acid, 50 μM farnesol, and various concentrations of 9-cis-retinoic acid, all-trans-retinoic acid, and 1,25-dihydroxy vitamin D3.
Observations were then made of the ultrastructural maturation of the outer epidermis in explants that had been incubated in the various media and then post-fixed in ruthenium tetroxide. Media identical to those of the preceding paragraph were used, excluding the retinoic acid-containing and 1,25-dihydroxy vitamin D3-containing media.

β-Glucocerebrosidase = β-Glucocerebrosidase activity in epidermis of treated fetal rat skin explants; format: cell-based, rats; settings: clofibrate (300 μM), juvenile hormone III (100 μ), mean of five ± SEM
Experimental: (§1) Epidermis was separated from dermis after incubation in 10 mM ethylenediamine tetraacetic acid (EDTA) in Ca^++- and Mg^++-free phosphate-buffered saline (PBS), pH 7.4, at 37° C. for 30-40 minutes. The tissues were then minced, and homogenized on ice (three times at 15 seconds each with a Polytron homogenizer, followed by sonication twice at ten seconds each at 35% power) in either PBS containing 0.1 mM phenylmethylsulfonyl fluoride (PMSF) and 0.1% Triton X-100 (for β-glucocerebrosidase) or in 10 mM Tris (PH 7.5) containing 0.15 M sucrose and 2 mM EDTA (for steroid sulfatase). β-Glucocerebrosidase activity was measured in the supernatant following centrifugation at 10,000×g for fifteen minutes at 4° C. Steroid sulfatase activity was measured in the microsomal fraction resulting from a […] centrifugation (10 minutes, 4° C.) followed by 60 minutes of 100,000×g ultracentrifugation at 4° C. Protein content was measured by conventional techniques.
β-Glucocerebrosidase) activity was assayed using the synthetic substrate 4-methylumbelliferyl β-D-glucoside (4-MUG). The assays were performed in 5 mM sodium taurocholate in citrate-phosphate buffer (pH 5.6) with 0.5 mM 4-MUG for sixty minutes at 37° C., with a final assay volume of 100 μL, and protein concentration of 1-2 mg/mL. The reaction was terminated with 2 mL of carbonate-bicarbonate buffer (pH 10.5). The fluorescence was then measured at […] (excitation) and 450 λ (emission) and compared with a standard 4-methylumbelliferone (4-MU) curve.
(§2) Skin explants from 17-day fetal rats were incubated for 24 or 48 hours in media individually containing clofibrate (300 μM) and juvenile hormone III […], and control media. Enzyme activity was measured and the results are presented in Table I as the mean values of five determinations±SEM (standard error of the mean). All p values are ≦0.005 compared with controls of the same time period.

[2] = tested on: full-thickness flank skin from the fetal rats; assay: Transepidermal water loss (TEWL) of fetal rat skin explants in organ culture (barrier function); format: cell-based, Sprague-Dawley rats
Experimental: Timed pregnant Sprague-Dawley rats (plug date=day 0) were obtained from Simonsen (Gilroy, Calif., USA) and fetuses were delivered prematurely on day 17. Transepidermal water loss (TEWL) was measured in excised full-thickness flank skin from the fetal rats after various times in culture. The skin explants were placed dermis-side down onto collagen membrane inserts (3μ pore size) in medium M-199 (serum-free), and submerged, and the lateral edges and dermal surface were sealed with petrolatum, such that water loss occurred only through the epidermal surface. Explant samples were weighed hourly, at ambient temperature (24±3° C.) and humidity (40±5%), over 6 hours using a Cahn balance (sensitivity 0.001 mg). TEWL levels are reported as milligrams of water lost per square millimeter of epidermal surface per hour. Fatty acids and clofibrate (p-chlorophenoxyisobutyric acid) were added to the medium bound to 0.5% (weight/volume) bovine serum albumin (BSA). Isoprenoids and oxysterols were added in ethanol (≦0.1%) and juvenile hormone III was added as a dimethylsulfoxide (DMSO) solution (≦0.1%). Control explants were incubated in the presence of the appropriate vehicle (≦0.1% DMSO or ethanol, and/or ≦0.5% BSA). Skin explants from gestational day 17 rats were incubated in the presence of either various activators or vehicle, and transepidermal water loss was measured after two days. The activators and the concentrations at which they were used were as follows: […]

[3] = tested on: Normal human keratinocytes; assay: Cornified envelope formation (35S incorporation) in keratinocytes; format: cell-based; settings: 15 μM, 0.03 mM calcium, 48-hour
Steroid Sulfatase = assay: Steroid sulfatase activity in epidermis of treated fetal rat skin explants; format: cell-based, rats; settings: clofibrate (300 μM), juvenile hormone III (100 μ), mean of five ± SEM
Experimental: as §1
Steroid sulfatase activity was measured by incubating 100 μg of microsomal protein in 0.1 M Tris containing 5.6 mM glucose (pH 7.4) with 15 μM, (^3H) dihydroepiandrosterone sulfate (DHEAS) (15 μCi) in a final volume of 1.1 mL The product, (^3H) DHEA, was extracted with benzene and an aliquot counted by scintillation spectrophotometry.
as §2

For `C=C1/C(=C\C=C2/CCC[C@]3(C)[C@@H]([C@H](C)CCCC(C)(C)O)CC[C@@H]23)C[C@@H](O)C[C@@H]1O` [1,25-dihydroxyvitamin D3], the “acceleration of the appearance of a mature barrier in fetal rodent skin” value (from here on “acceleration”) (fetal rodent skin) is listed as “had no effect” and the “light microscopy of the epidermis” value ([1]; various concentrations) is listed as “did not exhibit a distinct stratum corneum”.

For `CC1=C(/C=C/C(C)=C\C=C\C(C)=C\C(=O)O)C(C)(C)CCC1` [9-cis-retinoic acid], the “acceleration” value (fetal rodent skin) is listed as “had no effect” and the “light microscopy of the epidermis” value ([1]; various concentrations) is listed as “did not exhibit a distinct stratum corneum”.

In the case of `CC1=C(/C=C/C(C)=C/C=C/C(C)=C/C(=O)O)C(C)(C)CCC1` [all-trans-retinoic acid], the “acceleration” value (fetal rodent skin) is listed as “had no effect” and the “light microscopy of the epidermis” value ([1]; various concentrations) is listed as “did not exhibit a distinct stratum corneum”.

With `COC(=O)C=C(C)CCC=C(C)CCC1OC1(C)C` (stereo not drawn) [juvenile hormone III, 7-methyl-9-(3,3-dimethyloxiranyl)-3-methyl-2,6-nonadienoic acid methyl ester] the “β-Glucocerebrosidase Activity” value (β-Glucocerebrosidase; 24-Hour Incubation) was 2.89 ± 0.20 nmol/min/mg, the “β-Glucocerebrosidase Activity” value (β-Glucocerebrosidase; 48-Hour Incubation) was 5.20 ± 0.62 nmol/min/mg and the “effect on TEWL / barrier formation” value ([2]; 100 μM, two days) was “significantly accelerated barrier formation”. For the same compound, the EC50 ([2]; Rattus norvegicus, dose response, FIGS. 4a-4c, read-out: concentration of half-maximal effect on barrier development (TEWL)) was ~75 µM, the “concentration of maximal effect on barrier development (TEWL)” value ([2]; dose response, FIGS. 4a-4c) was “approximately 250 μM” and the “light microscopy of the epidermis” value ([1]; 100 μM, 48 hours) was “had both a multi-layered stratum granulosum and a stratum corneum”. For the same compound, the “rate of cornified envelope formation” value [3] was “substantial increases in the rate of cornified envelope formation”, the “Steroid Sulfatase Activity” value (Steroid Sulfatase; 24-Hour Incubation) was 12.55 ± 1.25 pmol/h/mg and the “Steroid Sulfatase Activity” value (Steroid Sulfatase; 48-Hour Incubation) was 18.23 ± 2.35 pmol/h/mg.
